Laboratory results: patent US20050163814A1, “Granulated phosphoroamido(di) thioates” (priority 2002, published 2005)
Where “and” joins values, the source holds several entries; their conditions need not be identical. Identical values can stand only once. Marks after values point to notes of the source that are not given here.

Assays:
Format in all cases: physicochemical
[1] = GE Brightness of acephate powder; details: bulk powder, reflected light
Experimental: A sample of technical grade acephate crystals was obtained (Examples 1 and 3) and compared. […] Half of each sample was analyzed for brightness and particle size distribution.
Milling caused a measurable increase in the brightness of the bulk powder sample as measured by reflected light. Such an increase is visually apparent as a noticeably brighter powder when compared side-by-side under the GE Brightness test.

[2] = Particle size distribution (sieve openings) of acephate technical
Experimental: The other half of the Source B sample was analyzed for particle size distribution as received and with the milling according to the invention. FIG. 1 (unmilled) and FIG. 2 (milled) are graphs of the particle size distributions from the milling process. All values are in terms of weight percent of total sample that could pass through the designated sieve opening.

[3] = Crystal dimensions by visual inspection; details: for Crystal dimensions: length / Crystal dimensions: width: Table 4; for Aspect ratio: length:width; for average crystal length / average width: visual inspection
Description: The unmilled acephate from example 3 was a commercially available technical grade having elongated cylindrical shaped crystals with an average crystal length of 250-500 μm and an average width of 40-100 μm. In contrast, the acephate powder of example 4 was made of substantially cylindrical shaped crystals with an average crystal length of less than about 150 μm and an average width of less than 40 μm.

[4] = up to Sieve Size >177 μm, subject to rounding

## COP(=O)(NC(C)=O)SC (stereo not shown) [Ex. 2, acephate]
[1]
  GE Brightness: 88.4

## COP(=O)(NC(C)=O)SC (stereo not shown) [Ex. 1, acephate, reference compound]
[1]
  GE Brightness: 87.2

## COP(=O)(NC(C)=O)SC (stereo not shown) [Ex. 4, acephate]
[1]
  GE Brightness: 93.7
[2]; Sieve Size 2.3-3.9 μm, listed as Milled
  Summary Particle Size Distribution, Range: 15.26 wt %
[2]; Sieve Size 4.6-16 μm, listed as Milled
  Summary Particle Size Distribution, Range: 41.93 wt %
[2]; Sieve Size 4.6-37 μm, listed as Milled
  Summary Particle Size Distribution, Range: 62.09 wt %
[2]; Sieve Size 4.6-88 μm, listed as Milled
  Summary Particle Size Distribution, Range: 71.47 wt %
[2]; Sieve Size 19-37 μm, listed as Milled
  Summary Particle Size Distribution, Range: 20.16 wt %
[2]; Sieve Size 44-88 μm, listed as Milled
  Summary Particle Size Distribution, Range: 9.39 wt %
[2]; Sieve Size 105-149 μm, listed as Milled
  Summary Particle Size Distribution, Range: 1.38 wt %
[2]; Sieve Size <1.9 μm, listed as Milled
  Summary Particle Size Distribution, Range: 11.73 wt %
[2]; Sieve Size <3.9 μm, listed as Milled
  Summary Particle Size Distribution, Range: 26.99 wt %
[2]; Sieve Size >105 μm, listed as Milled
  Summary Particle Size Distribution, Range: 1.54 wt % and 1.68 wt %
[2]; Sieve Size >177 μm, listed as Milled
  Summary Particle Size Distribution, Range: 0.30 wt %
[2]; Size 1.9 μm, listed as Milled
  Particle Size Distribution: 3.7746 weight percent
[2]; Size 2.3 μm, listed as Milled
  Particle Size Distribution: 1.8957 weight percent
[2]; Size 2.8 μm, listed as Milled
  Particle Size Distribution: 3.9085 weight percent
[2]; Size 3.3 μm, listed as Milled
  Particle Size Distribution: 4.3981 weight percent
[2]; Size 3.9 μm, listed as Milled
  Particle Size Distribution: 5.0539 weight percent
[2]; Size 4.6 μm, listed as Milled
  Particle Size Distribution: 4.0079 weight percent
[2]; Size 5.5 μm, listed as Milled
  Particle Size Distribution: 4.6002 weight percent
[2]; Size 6.5 μm, listed as Milled
  Particle Size Distribution: 5.3931 weight percent
[2]; Size 7.8 μm, listed as Milled
  Particle Size Distribution: 5.6669 weight percent
[2]; Size 9.2 μm, listed as Milled
  Particle Size Distribution: 6.1254 weight percent
[2]; Size 11 μm, listed as Milled
  Particle Size Distribution: 6.0030 weight percent
[2]; Size 13 μm, listed as Milled
  Particle Size Distribution: 5.4418 weight percent
[2]; Size 16 μm, listed as Milled
  Particle Size Distribution: 4.6925 weight percent
[2]; Size 19 μm, listed as Milled
  Particle Size Distribution: 4.8575 weight percent
[2]; Size 22 μm, listed as Milled
  Particle Size Distribution: 4.9085 weight percent
[2]; Size 26 μm, listed as Milled
  Particle Size Distribution: 4.4529 weight percent
[2]; Size 31 μm, listed as Milled
  Particle Size Distribution: 3.4498 weight percent
[2]; Size 37 μm, listed as Milled
  Particle Size Distribution: 2.4873 weight percent
[2]; Size 44 μm, listed as Milled
  Particle Size Distribution: 2.0818 weight percent
[2]; Size 53 μm, listed as Milled
  Particle Size Distribution: 2.3280 weight percent
[2]; Size 63 μm, listed as Milled
  Particle Size Distribution: 2.2067 weight percent
[2]; Size 75 μm, listed as Milled
  Particle Size Distribution: 1.5439 weight percent
[2]; Size 88 μm, listed as Milled
  Particle Size Distribution: 1.2313 weight percent
[2]; Size 105 μm, listed as Milled
  Particle Size Distribution: 0.8371 weight percent
[2]; Size 125 μm, listed as Milled
  Particle Size Distribution: 0.4144 weight percent
[2]; Size 149 μm, listed as Milled
  Particle Size Distribution: 0.1331 weight percent
[2]; Size 177 μm, listed as Milled
  Particle Size Distribution: 0.1199 weight percent
[2]; Size 210 μm, listed as Milled
  Particle Size Distribution: 0.0486 weight percent
[2]; Size 250 μm, listed as Milled
  Particle Size Distribution: 0.132 weight percent
[2]; Size 298 μm, listed as Milled
  Particle Size Distribution: 0.0000 weight percent
[2]; Size <1.9 μm, listed as Milled
  Particle Size Distribution: 7.9543 weight percent
[2]; Size >298 μm, listed as Milled
  Particle Size Distribution: 0.0000 weight percent
[2]; listed as Milled
  mean particle size: 19.1 μm
  median particle size: 10.3 μm
[2]; up to Sieve Size 2.3-3.9 μm, listed as Milled
  Summary Particle Size Distribution, Cumul.: 26.99 wt %
[2]; up to Sieve Size 4.6-16 μm, listed as Milled
  Summary Particle Size Distribution, Cumul.: 68.92 wt %
[2]; up to Sieve Size 19-37 μm, listed as Milled
  Summary Particle Size Distribution, Cumul.: 89.07 wt %
[2]; up to Sieve Size 44-88 μm, listed as Milled
  Summary Particle Size Distribution, Cumul.: 98.46 wt %
[2]; up to Sieve Size 105-149 μm, listed as Milled
  Summary Particle Size Distribution, Cumul.: 99.85 wt %
[2]; up to Sieve Size <1.9 μm, listed as Milled
  Summary Particle Size Distribution, Cumul.: 11.73 wt %
[2]; [4]
  Summary Particle Size Distribution, Cumul.: ˜100* wt %
[3]; listed as Milled
  Crystal dimensions: length: 40-90 μm
  Crystal dimensions: width: 20-25 μm
  Aspect ratio: 2-3.6
[3]
  average crystal length: less than 150 μm
  average width: less than 40 μm

## COP(=O)(NC(C)=O)SC (stereo not shown) [Ex. 3, acephate, reference compound]
[1]
  GE Brightness: 90.2
[2]; Sieve Size 2.3-3.9 μm, listed as Unmilled
  Summary Particle Size Distribution, Range: 14.55 wt %
[2]; Sieve Size 4.6-16 μm, listed as Unmilled
  Summary Particle Size Distribution, Range: 33.43 wt %
[2]; Sieve Size 4.6-37 μm, listed as Unmilled
  Summary Particle Size Distribution, Range: 50.51 wt %
[2]; Sieve Size 4.6-88 μm, listed as Unmilled
  Summary Particle Size Distribution, Range: 65.44 wt %
[2]; Sieve Size 19-37 μm, listed as Unmilled
  Summary Particle Size Distribution, Range: 17.08 wt %
[2]; Sieve Size 44-88 μm, listed as Unmilled
  Summary Particle Size Distribution, Range: 14.93 wt %
[2]; Sieve Size 105-149 μm, listed as Unmilled
  Summary Particle Size Distribution, Range: 4.97 wt %
[2]; Sieve Size <1.9 μm, listed as Unmilled
  Summary Particle Size Distribution, Range: 13.27 wt %
[2]; Sieve Size <3.9 μm, listed as Unmilled
  Summary Particle Size Distribution, Range: 27.83 wt %
[2]; Sieve Size >105 μm, listed as Unmilled
  Summary Particle Size Distribution, Range: 6.73 wt %
[2]; Sieve Size >177 μm, listed as Unmilled
  Summary Particle Size Distribution, Range: 1.76 wt %
[2]; Size 1.9 μm, listed as Unmilled
  Particle Size Distribution: 3.6123 weight percent
[2]; Size 2.3 μm, listed as Unmilled
  Particle Size Distribution: 1.6125 weight percent
[2]; Size 2.8 μm, listed as Unmilled
  Particle Size Distribution: 3.3402 weight percent
[2]; Size 3.3 μm, listed as Unmilled
  Particle Size Distribution: 5.0469 weight percent
[2]; Size 3.9 μm, listed as Unmilled
  Particle Size Distribution: 4.5533 weight percent
[2]; Size 4.6 μm, listed as Unmilled
  Particle Size Distribution: 2.9044 weight percent
[2]; Size 5.5 μm, listed as Unmilled
  Particle Size Distribution: 3.2481 weight percent
[2]; Size 6.5 μm, listed as Unmilled
  Particle Size Distribution: 5.7966 weight percent
[2]; Size 7.8 μm, listed as Unmilled
  Particle Size Distribution: 4.6403 weight percent
[2]; Size 9.2 μm, listed as Unmilled
  Particle Size Distribution: 4.2474 weight percent
[2]; Size 11 μm, listed as Unmilled
  Particle Size Distribution: 4.6232 weight percent
[2]; Size 13 μm, listed as Unmilled
  Particle Size Distribution: 4.6531 weight percent
[2]; Size 16 μm, listed as Unmilled
  Particle Size Distribution: 3.3203 weight percent
[2]; Size 19 μm, listed as Unmilled
  Particle Size Distribution: 3.2150 weight percent
[2]; Size 22 μm, listed as Unmilled
  Particle Size Distribution: 3.1651 weight percent
[2]; Size 26 μm, listed as Unmilled
  Particle Size Distribution: 3.7619 weight percent
[2]; Size 31 μm, listed as Unmilled
  Particle Size Distribution: 3.7231 weight percent
[2]; Size 37 μm, listed as Unmilled
  Particle Size Distribution: 3.2123 weight percent
[2]; Size 44 μm, listed as Unmilled
  Particle Size Distribution: 3.0323 weight percent
[2]; Size 53 μm, listed as Unmilled
  Particle Size Distribution: 3.3767 weight percent
[2]; Size 63 μm, listed as Unmilled
  Particle Size Distribution: 3.2501 weight percent
[2]; Size 75 μm, listed as Unmilled
  Particle Size Distribution: 2.8069 weight percent
[2]; Size 88 μm, listed as Unmilled
  Particle Size Distribution: 2.4665 weight percent
[2]; Size 105 μm, listed as Unmilled
  Particle Size Distribution: 2.0819 weight percent
[2]; Size 125 μm, listed as Unmilled
  Particle Size Distribution: 1.5293 weight percent
[2]; Size 149 μm, listed as Unmilled
  Particle Size Distribution: 1.3606 weight percent
[2]; Size 177 μm, listed as Unmilled
  Particle Size Distribution: 0.7768 weight percent
[2]; Size 210 μm, listed as Unmilled
  Particle Size Distribution: 0.4565 weight percent
[2]; Size 250 μm, listed as Unmilled
  Particle Size Distribution: 0.2321 weight percent
[2]; Size 298 μm, listed as Unmilled
  Particle Size Distribution: 0.1849 weight percent
[2]; Size <1.9 μm, listed as Unmilled
  Particle Size Distribution: 9.6625 weight percent
[2]; Size >298 μm, listed as Unmilled
  Particle Size Distribution: 0.1068 weight percent
[2]; listed as Unmilled
  mean particle size: 30.4 μm
  median particle size: 11.7 μm
[2]; up to Sieve Size 2.3-3.9 μm, listed as Unmilled
  Summary Particle Size Distribution, Cumul.: 27.83 wt %
[2]; up to Sieve Size 4.6-16 μm, listed as Unmilled
  Summary Particle Size Distribution, Cumul.: 61.26 wt %
[2]; up to Sieve Size 19-37 μm, listed as Unmilled
  Summary Particle Size Distribution, Cumul.: 78.34 wt %
[2]; up to Sieve Size 44-88 μm, listed as Unmilled
  Summary Particle Size Distribution, Cumul.: 93.27 wt %
[2]; up to Sieve Size 105-149 μm, listed as Unmilled
  Summary Particle Size Distribution, Cumul.: 98.24 wt %
[2]; up to Sieve Size <1.9 μm, listed as Unmilled
  Summary Particle Size Distribution, Cumul.: 13.27 wt %
[2]; [4]
  Summary Particle Size Distribution, Cumul.: ˜100* wt %
[3]; listed as Unmilled
  Crystal dimensions: length: 100-280 μm
  Crystal dimensions: width: 40-50 μm
  Aspect ratio: 2.5-5.6
[3]
  average crystal length: 250-500 μm
  average width: 40-100 μm
